# Test system: zebrafish accordion mutant (acc) larvae heart
# Test: In-vivo heart contractility measurements in zebrafish acc mutant larvae
# Set-up: species or system zebrafish (Danio rerio)
# Conditions: 1 nM, 90 minutes
# Protocol: Ouabain, bufalin, digoxin, acetylcholine, carbachol, […] (pp2) and U0126 (1,4-diamino-2,3-dicyano-1,4-bis(2-aminophenylthio)butadiene) were purchased from Sigma-Aldrich Inc., Israel. The compounds were dissolved in egg water (0.3 g Instant Ocean Salt in distilled water) to a final selected concentration, as specified in the following examples. The larvae in 20 μL of E3 medium were transferred to the egg water solution containing one or two of the above specified drugs of choice, and incubated for 60-90 minutes at 28° C.
# Filming process Zebrafish larvae heart imaging was performed using an Olympus CKX41 (Japan) […] microscope with ×10 or ×20 magnification, and integrated incandescent illumination. A FastCam imi-tech (Korea) high speed digital camera with 640×480 pixel gray scale image sensor was mounted on the microscope, using ImCam software (IMI Technology, Co. Ltd) for high speed video recording. The larvae were anesthetized by placing them in filming/anesthetizing medium. Each larva in 0.5 ml filming/anesthetizing medium was transferred to a 96-well tissue culture plate at room temperature and sequential images of the heart were obtained, with the larvae positioned on their side, at 80 fps during 10 seconds with a shutter speed of 0.016 seconds.
# Physiological parameters of cardiovascular performance, as indicated hereinbelow, were evaluated in the zebrafish larvae. […] Sequential still frames were analyzed to capture ventricular end-systole and end-diastole images. […] The Ejection Fraction (EF) was determined by an independent estimate of ventricular volume. […] EF was then calculated according to the equation: EF=(EDV-ESV)/EDV*100. Heart rate (HR) was measured in beats per minute. Cardiac output (CO) was calculated according to the equation: CO=(EDV-ESV)*HR. A minimum of five sequential pairs of systolic and diastolic cycles were measured and analyzed in 9-12 larvae for each treatment.
compound,measurement,value
"C[C@@H]1O[C@@H](O[C@H]2C[C@@H](O)[C@]3(CO)[C@H]4[C@H](O)C[C@]5(C)[C@@H](C6=CC(=O)OC6)CC[C@]5(O)[C@@H]4CC[C@]3(O)C2)[C@H](O)[C@H](O)[C@H]1O [ouabain, 3-(alpha-L-Rhamnopyranosyloxy)-1beta,5beta,11alpha,14,19-pentahydroxy-5beta-card-20(22)-enolide]",effect on heart contractility,no effect on heart contractility

# Reference: US20180369264A1, “COMBINATION OF A CARDIAC STEROID AND AN AKT INHIBITOR FOR THE TREATMENT OF CARDIOVASCULAR DISEASES AND DISORDERS” (YISSUM RESEARCH DEVELOPMENT COMPANY OF THE HEBREW …, priority 2015, published 2018)
